Read-outs that look alike come from different tables or passages of the source. Marks after values point to notes of the source that are not given here. Each block holds one molecule with its values, some of them ahead of it.
How the values were obtained:
[1] = molecular target: FKBP12 (Homo sapiens, UniProt P62942); test: Ki test procedure: inhibition of peptidyl-prolyl isomerase (rotamase) activity, chymotrypsin-coupled assay; type: biochemical
Text: The inhibition of the prolyl peptidyl cis-trans isomerase activity of FKBP may be measured as an indicator of this affinity. Inhibition of the peptidyl-prolyl isomerase (rotamase) activity of the compounds used in the inventive methods and pharmaceutical compositions can be evaluated by known methods described in the literature (Harding et al., Nature, 1989, 341:758-760; Holt et al. J. Am. Chem. Soc., 115:9923-9938). […] The cis-trans isomerization of an alanine-proline bond in a model substrate, N-succinyl-[…]-nitroanilide, is monitored spectrophotometrically in a chymotrypsin-coupled assay, which releases para-nitroanilide from the trans form of the substrate. The inhibition of this reaction caused by the addition of different concentrations of inhibitor is determined, and the data is analyzed as a change in first-order rate constant as a function of inhibitor concentration to yield the apparent Ki values. […] The reaction is initiated by the addition of […] of substrate (succinyl-[…]-nitroanilide, 5 mg/mL in 2.35 mM LiCl in trifluoroethanol). The absorbance at 390 nm versus time is monitored for 90 seconds using a spectrophotometer and the rate constants are determined from the absorbance versus time data files.

[2] = test system: retinal ganglion cell axons; test: Protection of retinal ganglion cell axons from degeneration 14 days after optic nerve transection (Table V); type: in vivo; conditions: ± SEM
Text: Efficacy of representative compounds from different immunophilin ligand series in protecting retinal ganglion cell axons from degeneration following optic nerve transection is set forth in Table V.

[3] = Clearance (Table V comments); type: in vitro ADME
[4] = test system: retinal ganglion cells; test: Example 13: optic nerve transection, 28 days treatment, sacrifice 90 days after transection; type: in vivo, Sprague Dawley rats; conditions: 10 mg/kg/day s.c. for 28 days
[5] = test system: streptozotocin-induced diabetic rat; test: Streptozotocin-induced diabetic sensory neuropathy, hot plate and tail flick; type: in vivo, Male Wistar rats; conditions: lesioned animals treated for 6 weeks at 10 mg/kg s.c.
Experimental: The procedure involved using Male Wistar rats which were given a single injection of streptozotocin (65 mg/kg i.v.). Blood glucose levels were determined weekly for the first three weeks and on the last week of the experiment. Animals were evaluated weekly for signs of sensory neuropathy using the conventional hot plate and tail flick apparatus test procedures.

[6] = test system: retinal ganglion cells and optic nerve axons; test: Optic nerve transection, 14 or 28 day treatment, evaluated 90 days after transection; type: in vivo, Sprague Dawley rats; conditions: for Proximal optic nerve myelin basic protein Density: % areal coverage of optic nerve cross section, ± SEM; for Distal optic nerve: shrinkage of cross sectional area: compared to sham control
Text: All eyes and optic nerves stumps were removed.

[7] = apparent Ki, Table C, read-out: Ki
[8] = Table V comments, read-out: Ki rotamase

FKBP12, sequence (P62942 whole entry, species assumed): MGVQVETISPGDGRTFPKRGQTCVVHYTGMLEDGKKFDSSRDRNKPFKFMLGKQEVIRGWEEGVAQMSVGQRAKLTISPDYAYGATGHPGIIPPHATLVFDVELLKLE

- Ki [1, 7]: 20 µM
Structure (SMILES): COC(=O)C(=O)N1CCCCC1C(=O)OCCCC1CCCCC1 (centres unmarked) [Compound 18]

- Ki [1, 7]: 35 µM
Structure (SMILES): COC(=O)C(=O)N1CCCCC1C(=O)OCCCC1CCCC1 (centres unmarked) [Compound 19]

Structure (SMILES): COc1ccc(CCCCOC(=O)C2CCCCN2C(=O)C(=O)c2cc(OC)c(OC)c(OC)c2)cc1 (centres unmarked) [Compound 25]
- Ki [1, 7]: 0.013 µM

- Ki [1, 8]: 0.149 µM
Structure (SMILES): O=C(SCCCc1ccccc1)[C@@H]1CCCN1C(=O)NC12CC3CC4(CC(C3)(C4)C1)C2 [Compound B]
- RT97 + RGC axon density 14 days after ON transection (% ON axons rescued) [2]: 100.0% ± 5.2% SEM

- Clearance [3]: 4.5 µL/min
Structure (SMILES): CCC(C)(C)C(=O)C(=O)N1CCCC[C@H]1C(=O)SCCC(c1ccccc1)c1ccccc1 [Compound K]
- RT97 + RGC axon density 14 days after ON transection (% ON axons rescued) [2]: 13.0% ± 4.2% SEM

Structure (SMILES): O=C(OCCCCc1ccccc1)[C@@H]1CCCCN1S(=O)(=O)Cc1ccccc1 [D]
- RT97 + RGC axon density 14 days after ON transection (% ON axons rescued) [2]: 58.4% ± 6.4% SEM

- Clearance [3]: 41.8 µL/min
Structure (SMILES): CCC(C)(C)C(=O)C(=O)N1CCCC[C@H]1C(=O)OC(CCc1ccccc1)CCc1ccccc1 [E]

Structure (SMILES): CCC(C)(C)C(=O)C(=O)N1CCS[C@@H]1C(=O)OCCCc1cccnc1 [F]
- RT97 + RGC axon density 14 days after ON transection (% ON axons rescued) [2]: 55.1% ± 5.9% SEM

Structure (SMILES): CCC(C)(C)C(=O)C(=O)N1CCC[C@H]1C(=O)OCCCc1cccnc1 [GPI 1046]
- preservation of axons in the proximal stump (RT97 neurofilament immunohistochemistry) [4]: preserved the axons of virtually all protected neurons
- latency in hot plate and tail flick [5]: improvement in latency
- Proximal optic nerve myelin basic protein Density ([6]; ONT/14 days GPI 1046): did not alter the pattern of myelin degeneration
- Distal optic nerve: shrinkage of cross sectional area ([6]; ONT/14 days GPI 1046): did not protect against shrinkage of the distal stump
- Distal optic nerve myelin basic protein Density: myelin loss ([6]; ONT/14 days GPI 1046, cross sectional area multiplied by myelin density): slightly increase the density,of myelin
- RGC Counts ([6]; ONT/28 days GPI 1046, 10 mg/kg/day sc, 90 days after transection, mean density of Fluoro-gold labeled RGC in 400 μm × 400 μm gridfields): 67.9 +
- Proximal optic nerve myelin basic protein Density ([6]; ONT/28 days GPI 1046): dramatic preservation of the fascicular staining pattern
- ON axon Count ([6]; ONT/28 days GPI 1046, calculated by multiplying axonal density by ON area): 22.861*
- Distal optic nerve: shrinkage of cross sectional area ([6]; ONT/28 days GPI 1046): prevented cross sectional shrinkage
- Distal optic nerve myelin basic protein Density: myelin preservation ([6]; ONT/28 days GPI 1046, cross sectional area multiplied by myelin density): 99% myelin % myelin preservation

- Ki [1, 8]: > 10 µM
Structure (SMILES): CCC(C)(C)C(=O)C(=O)N1CCCC[C@H]1C(=O)O [G]
- RT97 + RGC axon density 14 days after ON transection (% ON axons rescued) [2]: 34.0% ± 4.8% SEM

Structure (SMILES): CCC(C)(C)C(=O)C(=O)N1CCCC[C@H]1C(N)=O [H]
- RT97 + RGC axon density 14 days after ON transection (% ON axons rescued) [2]: 30.3% ± 8.0% SEM

Structure (SMILES): CCC(C)(C)C(=O)C(=O)N1CCC[C@H]1C(=O)CCCCc1cccnc1 [J]
- RT97 + RGC axon density 14 days after ON transection (% ON axons rescued) [2]: 15.8% ± 4.8% SEM

- Ki [1, 8]: ≥ 7.74 µM
Structure (SMILES): CCC(C)(C)C(=O)C(=O)N1CCC[C@H]1C(=O)O [L]

Structure (SMILES): CCC(C)(C)C(=O)C(=O)N1CCC[C@H]1C(=O)SCCC(c1ccccc1)c1ccccc1 [M]
- RT97 + RGC axon density 14 days after ON transection (% ON axons rescued) [2]: −6.3% + 3.9% SEM

— US6335348B1, “Nitrogen-containing linear and azepinyl/ compositions and uses for vision and memory disorders” (GPI NIL Holdings, Inc., priority 1998, dated 2002)
